# Results: US7968526B2, “Antisense oligonucleotides directed to ribonucleotide reductase R2 and uses thereof in the treatment of cancer” (Lorus Therapeutics Inc., priority 2003, dated 2011)
# Entries after “also recorded” stand apart in the source; their conditions may differ.
# Assays:
# [1] = test system: HT-29 human colon cancer cells; assay: HT-29 colon tumour xenograft in nude mice, combination with CPT-11 (1.2); format: in vivo, human cells in mice; conditions: SEQ ID NO:1 10 mg/kg i.v. every other day, CPT-11 20 mg/kg i.p. days 7-12
# Excerpt: All treatments were stopped at day 22. […] All treatments were stopped at day 32. […] All treatments were stopped at day 36.
# [2] = test system: MDA-MB435-To.1 human Taxol-resistant breast adenocarcinoma cells; assay: MDA-MB435-To.1 Taxol-resistant breast adenocarcinoma, fat pad, SCID mice (2.5); format: in vivo, human cells in mice
# Experimental: BxPC-3 is a gemcitabine resistant call line. […] Gemcitabine was administered intravenously every three days at a dose of 100 mg/kg. Antitumour activities were estimated by the inhibition of tumour volume, which was measured with caliper. Each point represents mean tumour volume calculated from 10 animals per experimental group. […] Hela S3 is a hydroxyurea resistant cell line. […] Hydroxyurea was administered intraperitoneally every day at a dose of 250 mg/kg for 10 days. Cisplatin was administered intravenously once a week for three weeks at a dose of 4 mg/kg. Antitumour activities were estimated by the inhibition of tumour volume, which was measured with caliper. Each point represents mean tumour volume calculated from 10 animals per experimental group. […] Cisplatin was administered intravenously once a week for three weeks at a dose of 4 mg/kg. Taxol was administered intravenously once a week for three weeks at a dose of 10 mg/kg. Antitumour activities were estimated by the inhibition of tumour volume, which was measured with caliper. Each point represents mean tumour volume calculated from 10 animals per experimental group. […] Taxol was administered i.p. once a week at a dose of 10 mg/kg. Antitumour activities were estimated by the inhibition of tumour volume (FIG. 12A), which was measured with calipers. Each point represents mean tumour volume calculated from 10 animals per experimental group. Animals were sacrificed and tumour weights taken at the end of the study (FIG. 12C). […] Cisplatin was administered intravenously once a week for four weeks at a dose of 4 mg/kg. Taxol was administered intravenously once a week for four weeks at a dose of 20 mg/kg. Antitumour activities were estimated by the inhibition of tumour volume, which was measured with caliper. Each point represents mean tumour volume calculated from 9-10 animals per experimental group. […] Cisplatin was administered intravenously once a week for four weeks at a dose of 4 mg/kg. Antitumour activities were estimated by the inhibition of tumour volume, which was measured with caliper. Each point represents mean tumour volume calculated from 10 animals per experimental group. At the end of the study the animals were sacrificed and tumours weighed. […] Taxol was administered i.p. once a week at a dose of 10 mg/kg. Anti-tumour activity was estimated by the inhibition of tumour volume, which was measured with caliper. Each point represents mean tumour volume calculated from 10 animals per experimental group. In addition animals were sacrificed and tumour weights taken at the end of the study. […] CPT-11 was administered i.p. for 5 days at a dose of 20 mg/kg/day. Antitumour activities were estimated by the inhibition of tumour volume, which was measured with caliper. Each point represents mean tumour volume calculated from 10 animals per experimental group. Tumour weights were measured after animals were sacrificed at the end of the treatment. These cells are not resistant to CPT-11 which was used as a positive control.
# [3] = test system: C8161 human metastatic melanoma cells; assay: Experimental metastasis assay, C8161 cells, treatment post tumour cell injection; format: in vivo, human cells in mice; conditions: C8161 cells i.v. into SCID mice; treatment initiated after 2 days; lungs 5-7 weeks later
# Experimental: C8161 human melanoma cells were seeded into 100 mm tissue culture dishes at a density of 2×10^6 and incubated overnight at 37° C. in α-MEM medium supplemented with 10% FBS. The cells were trypsinized, collected by centrifugation and aliquots were removed from the suspension to determine the cell viability using trypan blue exclusion test. […] Treatment was initiated after 2 days. Estimates of the number of lung nodules were made 5-7 weeks later, after excised lungs from individual mice were stained with picric acid dye solution (75% picric acid, 20% formaldehyde, 5% glacial acetic acid).
# Murine R3 fibrosarcoma and human C8161 melanoma cells injected into the tail vein of mice form observable lung nodules 2 weeks post-injection. […] To more accurately reflect the clinical situation, mice were treated with SEQ ID NO:1 post tumour cell injection. C8161 human metastatic melanoma cells were seeded into 100 mm tissue culture dishes at a density of 2×10^6 and incubated overnight at 37° C. in α-MEM medium supplemented with 10% FBS. The cells were trypsinized, collected by centrifugation and aliquots were removed from the suspension to determine the cell viability using trypan blue exclusion test. Approximately 1×10^5 cells suspended in 0.1 ml of PBS were injected into the tail veins of 6-8 week old female SCID mice. Treatment was initiated after 2 days. Estimates of the number of lung nodules were made 5-7 weeks later, after excised lungs from individual mice were stained with picric acid dye solution (75% picric acid, 20% formaldehyde, 5% glacial acetic acid). The results are shown in FIG. 31, bars represent the mean number of nodules per mouse with standard error.
# [4] = 21-day intravenous toxicity study in the rat with a 21-day recovery; format: in vivo, Sprague-Dawley rats
# Experimental: SEQ ID NO:1 was administered to Sprague-Dawley rats via intravenous bolus injection every second day up to 21 days, with a 21-day recovery period. The study design included 4 treatment groups; vehicle controls, 2 mg/kg, 10 mg/kg, and 50 mg/kg. The main study group consisted of 10 animals/sex, and an additional 5 animals/sex were included in the control and high-dose groups for a recovery phase. Satellite animals (6/sex/group) were also included for toxicokinetic analysis.
# [5] = 50 mg/kg i.v. bolus every second day up to 21 days
substance,measurement,setting,value
"5′-GGCTAAATCGCTCCACCAAG-3′ (all phosphorothioate, sugars by position and methylation of C not given here) [SEQ ID NO: 1, fully phosphorothioated antisense oligonucleotide that hybridizes to the coding region of R2 mRNA]",Tumour weight as % of saline control,"[1]; HT-29 (colon), CD-1",19%
same,"Antitumour effect (tumour weight, FIG. 2)","[1]; HT-29, CD-1 nude mice",significant delay of tumour growth compared to saline control; also recorded: superior to the inhibitory effects observed with CPT-11 alone
same,Tumour weight as % of saline control,"[2]; MDA-MB435-To.1 (breast), Taxol resistant, SCID, SEQ ID NO:1 10 mg/kg i.v. every other day 15 times, Taxol 20 mg/kg, Cisplatin 4 mg/kg i.v. weekly x4",42%
same,Antitumour effect (FIG. 13),"[2]; MDA-MB435-To.1 Taxol-resistant, SCID mice, SEQ ID NO:1 10 mg/kg i.v. every other day, Cisplatin 4 mg/kg, Taxol 20 mg/kg i.v. weekly",significant reduction of tumour weight compared to saline control; also recorded: superior to the inhibitory effects observed with Cisplatin
same,Lung nodule formation / anti-metastatic activity (FIG. 31),[3],only one of the 9 mice had lung nodules
same,Toxicity findings,[4]; 2 mg/kg i.v. bolus every second day up to 21 days,no remarkable effects on any of the above parameters
same,Toxicity findings,[4]; 10 mg/kg i.v. bolus every second day up to 21 days,"no clinical signs, no effects on body weight or food consumption, a lesser degree of anemia and thrombocytopenia, and only minor changes in a few serum chemistry parameters"
same,Mortality,[4]; [5],A single mortality
same,Toxicity findings,[4]; [5],"various adverse clinical signs, a decrement in body weight gain (associated with diminished food consumption), lymphocytosis, moderate anemia and thrombocytopenia, and various relatively mild changes in serum chemistry parameters"
same,Target organs (histopathology),[4]; 10 and 50 mg/kg,"lymphoid system, kidneys, and liver"
same,no-adverse-effect-level (NOAEL),[4]; 21-day study,2 mg/kg/day
